Columns and labels:
KARPAS 299 = assay: Cell viability, CellTiterGlo, 72 hours; assay type: cell-based; details: Homo sapiens, KARPAS 299 cells, Blood
Description: (§1) In addition to the colorectal cells, 120 cancer cell lines treated with various concentrations of lomitapide were assayed for viability. To analyze cell viability, the cells were incubated with lomitapide at 37° C. for 72 hours in a 5% or 10% CO2 atmosphere and then equilibrated at room temperature for 1 hour, followed by addition of CellTiterGlo reagent (Promega). One hour later, luminescence was measured to calculate cell viability (%). The 120 cell lines were purchased from ATCC (American Type Culture Collection, Virginia, USA).

OVK18 = assay: Cell viability, CellTiterGlo, 72 hours; assay type: cell-based; details: OVK18 cells, Ovary
Description: as §1

p-S6K, p-S6, LC3 [1] = assay: Cell signaling assay, western blot, MDA-MB-468; assay type: cell-based, human; details: 0, 5, and 10 μM, FIG. 7d
Description: (§2) Cells treated with various concentrations (0, 5, and 10 μM) of lomitapide were lysed with RIPA buffer containing a protease-inhibitor cocktail. The whole-cell lysate was incubated on ice for 30 minutes. After centrifugation at 4° C. and 13,300×g for 15 minutes, the supernatant was collected. For use as controls, HCT116, SW480, HT29, MDA-MB-231, and MDA-MB-468 cells were treated with 1 μM of torin, known as an mTOR inhibitor.
(§3) For western blot analysis, the supernatant was loaded onto 10% SDS-PAGE gel. The separated proteins were blotted onto a PVDF membrane. Then, the blots were incubated with antibodies at 4° C. for 12 hours as follows (Table 2).
(§4) Then, the blots were washed with TBST (a mixture of tris-buffered saline (TBS) and Tween 20), incubated with horseradish peroxidase-conjugated secondary antibody (Cell signaling) at 37° C. for 1 hour, and washed, followed by detecting enhanced chemiluminescence (ECL; Amersham).

HCT116 cells = assay: HCT116 mouse xenograft model, tumor size; assay type: in vivo; details: BALB/c nude mice; 50 mg/kg or 25 or 50 mg/kg intraperitoneally, or 10 mg/kg intratumorally; vs DMSO control; FIG. 14
Description: Lomitapide was examined for anticancer effect in tumor-implanted mice by monitoring tumor sizes in the mouse xenograft model after treatment with lomitapide.
Animal experiments were conducted according to the guideline approved by the institutional animal care and use committee in the Korean Advanced Institute of Science and Technology. HCT116 cells (4×10^6) were injected subcutaneously into male BALB/c nude mice at 8-12 weeks of age. After an average tumor volume reached 50 mm^3, the mice were randomly divided into two groups (5 mice/group). The mice were measured for weight and tumor size every two days. Tumor sizes were measured using calipers and determined according to formula 0.5×(width)^2×(Length). P-values were determined using Student's T test. Lomitapide was intraperitoneally injected at a dose of 50 mg/kg into the mice at days 1, 2, 3, 7, 8, 9, 13, 14, 15, and 16 after start of the experiment. For a control, DMSO was injected intraperitoneally into the mice (FIG. 14a).
An additional animal experiment was conducted. Lomitapide was intraperitoneally injected at a dose of 25 or 50 mg/kg into mice five times every two days after start of the experiment. Intraperitoneal injection of DMSO into mice was conducted for a control (FIG. 14b). […]

COV434 = assay: Cell viability, CellTiterGlo, 72 hours; assay type: cell-based; details: COV434 cells, Ovary
Description: In addition to the colorectal cells, 120 cancer cell lines treated with various concentrations of lomitapide were assayed for viability.
To analyze cell viability, the cells were incubated with lomitapide at 37° C. for 72 hours in a 5% or 10% CO2 atmosphere and then equilibrated at room temperature for 1 hour, followed by addition of CellTiterGlo reagent (Promega). One hour later, luminescence was measured to calculate cell viability (%). The 120 cell lines were purchased from ATCC (American Type Culture Collection, Virginia, USA).

p-S6K, p-S6, LC3 [2] = assay: Cell signaling assay, western blot, SW480; assay type: cell-based, human; details: 0, 5, and 10 μM, FIG. 7a
Description: as §2, §3, §4

HCT116 = assay: RNA-seq assay, gene set enrichment, pathway enrichment and DEG analysis; assay type: cell-based, human; details: FIG. 12
Description: For the final detection of significant gene-sets, gene annotation databases (KEGG pathway, Gene Ontology, etc.) with various biological information about genes were used to discover various gene-sets by grouping genes with specific functions among all the genes used in the RNA-seq experiment. Significant genes were determined with reference to a difference in expression values between the two classes within each gene-set, and statistically significant gene-set was finally detected based on the significant genes. […] In DEG analysis, expression values of genes are measured and statistically processed to select a significant gene candidate group (differentially expression genes) with a difference in expression between a control and a comparison group.

p-S6K, p-S6, LC3 [3] = assay: Cell signaling assay, western blot, HS746T; assay type: cell-based, human; details: 0, 5, and 10 μM, FIG. 7e
Description: Cells treated with various concentration (0, 5, and 10 μM) of lomitapide were lysed with RIPA buffer containing a protease-inhibitor cocktail. The whole-cell lysate was incubated on ice for 30 minutes. After centrifugation at 4° C. and 13,300×g for 15 minutes, the supernatant was collected. For use as controls, cells were treated with 1 μM of torin, known as an mTOR inhibitor.
For western blot analysis, the supernatant was loaded onto 10% SDS-PAGE gel. The separated proteins were blotted onto a PVDF membrane. Then, the blots were incubated with antibodies at 4° C. for 12 hours as follows (Table 3).
as §4

B16F10 melanoma = assay: Mouse homograft tumor model, B16F10 melanoma; assay type: in vivo; details: B16F10 in C57B6/N mice
Description: For mouse homograft tumor model, experiments were conducted using female C57B6/N mice (wild-type, 6 weeks old) with MC38 colorectal cancer and B16F10 melanoma cell lines. MC38 colorectal cancer and B16F10 melanoma cell lines were each subcutaneously injected at a dose of 2×10^5 cells. Lomitapide used in the two models was formulated with 45% saline, 40% PEG300, 5% Tween-80, and 10% DMSO.
For B16F10 skin melanoma, from 10 days after the tumor injection, lomitapide was intraperitoneally injected at a dose of 40 mg/kg three times at days 3, 5, and 7, and anti-PD-1 mAb (clone RMP1-14, BioXCell, West Lebanon, NH, USA) or rat IgG2a iso-type control (clone 2A3, BioXCell, BE0089) was administered at a dose of 20 mg/kg at days 1, 3, 5, and 7. The mice were euthanized immediately when signs of pain were observed, the body weight was reduced by 20% compared to the normal weight, or the tumor volume exceeded 1,000 mm^3 (FIGS. 19a and 19b).

O=C(NC1CCN(CCCCC2(C(=O)NCC(F)(F)F)c3ccccc3-c3ccccc32)CC1)c1ccccc1-c1ccc(C(F)(F)F)cc1 [lomitapide, N-(2,2,2-trifluoroethyl)-9-[4-[4-[[[4′-(trifluoromethyl)[1,1′-biphenyl]2-yl]carbonyl]amino]-1-piperidinyl]butyl]-9H-fluoren-9-carboxamide]
IC50 (KARPAS 299): 1.4 µM
IC50 (OVK18): 3.3 µM
conversion from LC3I into LC3II (p-S6K, p-S6, LC3 [1]): increased induction of conversion from LC3I into LC3II
phosphorylation levels of target proteins (p-S6K and p-S6) (p-S6K, p-S6, LC3 [1]): remarkably decreased phosphorylation levels
tumor growth (tumor size) (HCT116 cells): grow slowly, compared to the control
IC50 (COV434): 3.1 µM
conversion from LC3I into LC3II (p-S6K, p-S6, LC3 [2]): increased induction of conversion from LC3I into LC3II
phosphorylation levels of target proteins (p-S6K and p-S6) (p-S6K, p-S6, LC3 [2]): remarkably decreased phosphorylation levels
expression of autophagy-related genes ATG family, ULK1, and DDIT4 (DEG analysis) (HCT116): significantly expressed
conversion from LC3I into LC3II (p-S6K, p-S6, LC3 [3]): increased induction of conversion from LC3I into LC3II
phosphorylation levels of target proteins (p-S6K, p-S6) (p-S6K, p-S6, LC3 [3]; dose-dependent): remarkably decreased phosphorylation levels
tumor growth compared to the groups treated with the anti-PD-1 mAb (B16F10 melanoma; lomitapide 40 mg/kg i.p., anti-PD-1 mAb 20 mg/kg): greatly suppressed and reduced
tumor growth compared to the control (B16F10 melanoma; lomitapide 40 mg/kg intraperitoneally three times): significantly suppressed and reduced tumor growth
